Test [1] deals with human cancer cell lines (MDA-MB-231, MCF-7, HepG2, HeLa, AGS, HCT116, SW480, SUNE-1, H460, HCC827, H1650, A549). Kind of test: MTT cell viability assay, panel of human cancer cell lines. The test is classed as cell-based. Conditions: Homo sapiens. Here is the method:
SUNE1 (nasopharyngeal carcinoma), AGS (gastric adenocarcinoma), HeLa (cervix adenocarcinoma), HepG2 (hepatocellular carcinoma), U-87 MG (human glioblastoma cell), U2OS (osteosarcoma), MCF-7 (breast adenocarcinoma), MDA-MB-231 (breast adenocarcinoma), HCT116 (colorectal carcinoma), SW480 (colorectal adenocarcinoma), NCI-H460 (large cell lung carcinoma), NCI-H1650 (adenocarcinoma lung carcinoma), HCC827 (adenocarcinoma lung carcinoma), A549 (lung carcinoma), and CCD-19Lu (human lung fibroblast normal cell) were all obtained from American Type Culture Collection (ATCC, Manassas, VA, USA). Minimum Essential Media (MEM, Gibco®, ThermoFisher Scientific), Dulbecco's Modified Eagle Medium (DMEM, Gibco®, ThermoFisher Scientific), and RPMI-1640 Medium (Gibco®, ThermoFisher Scientific) supplemented with 10% Fetal Bovine Serum (Gibco®, ThermoFisher Scientific), and 100 U/mL penicillin-streptomycin (Gibco™, ThermoFisher Scientific) were used for cell culture. Cells were placed into an incubator with 5% CO2 that temperature was set at 37° C. For subculturing cells, 0.05% Trypsin-EDTA (Gibco®) was used for detaching and a subcultivation ratio of 1:5 was used.
The cell viability assay was performed by a typical MTT assay. Briefly, 5*10^3 cells were seeded in the 96-well flat bottom plate and allowed to attach overnight. After drug treatment with a serial dilution from 100 μM for 48 h, 10 μL of MTT solution (5 mg/ml prepared in PBS, filtered) was added into each well and incubate for 4 h at 37° C. The formed formazan was then dissolved with SDS solution (10% SDS in 10 mM HCl) and followed the determination of absorbance at 590 nm by a microplate reader. The change in cell viability was then calculated for each drug concentration, then normalized to control. Dose response curves from each assay were fit to a Boltzmann sigmoidal function (GraphPad Prism8, version8.0.0). The cytotoxicity of AGB and its derivatives was determined by the calculation of IC50 value (half maximal inhibitory concentration) from fitted curves, which was the concentration of drug induced 50% cell viability.

Test [2] relates to NCI-H460 cells. The experiment in a line: Wound healing assay (cell migration). The class given is cell-based, human. As for the experimental part:
For wound healing assay in the present study, the cells were grown to approximately 80% confluence in 12-well plates in the complete growth medium and then a straight line was scraped at the central part of the each well by a 200 μL pipette tip. […] […] Each condition was performed in triplicate.

The target in test [3] is T1, HSP60 (Homo sapiens, UniProt P10809). The experiment in a line: Tryptophan fluorescence quenching assay. Conditions: Stern-Volmer analysis; read-out: Kd of AGB binding to HSP60. Here is the method:
(§1) FIG. 5A is a volcano plot (ΔTm, p-value) for TPP data obtained from NCI-H460 cells with 4 μM AGB treatment for 1 h. The criteria were set as ΔTm>2° C. and p<0.05. FIG. 5B is a graph showing results of the tryptophan fluorescence quenching assay for the direct interaction between AGB and three target proteins. Upper, tryptophan fluorescence titration of recombinant proteins with AGB. […] For CS, its fluorescence decrease was saturated when AGB concentrations increased to about 32 μM. Lower, the normalized tryptophan intensities at an emission of 320 nm were plotted as a function of total added concentration of AGB. The dissociation constants (Kd) between AGB and three proteins were then calculated by fitting this plot with Stern-Volmer Equation. […] The fluorescence intensity was presented as percentage relative to control groups. […]
(§2) To further examine whether AGB interacts directly with the above three identified proteins, the intrinsic tryptophan fluorescence properties of these proteins were examined in the presence of AGB at different concentrations. Upon binding with AGB, proteins experience a change of the tryptophan environment, which can be visualized by fluorescence spectroscopy. As shown in FIG. 5B the tryptophan fluorescence of three proteins were all quenched by AGB in a concentration-dependent manner.

Test [4] addresses T2, TALDO1 (Homo sapiens, UniProt P37837).
T2 construct: endogenous in cells
T2 sequence (P37837 1-337): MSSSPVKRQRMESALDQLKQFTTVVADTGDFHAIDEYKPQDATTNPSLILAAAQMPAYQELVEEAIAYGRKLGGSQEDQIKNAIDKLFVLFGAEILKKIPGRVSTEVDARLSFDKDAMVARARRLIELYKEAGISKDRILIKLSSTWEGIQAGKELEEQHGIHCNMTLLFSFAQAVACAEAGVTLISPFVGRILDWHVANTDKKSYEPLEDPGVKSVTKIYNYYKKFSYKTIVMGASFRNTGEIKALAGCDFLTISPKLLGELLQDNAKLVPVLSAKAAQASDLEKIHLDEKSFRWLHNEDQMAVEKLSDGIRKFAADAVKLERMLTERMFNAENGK
The experiment in a line: Tryptophan fluorescence quenching assay. To be noted: Stern-Volmer analysis; read-out: Kd of AGB binding to TALDO1. Here is the method: as §1, §2

Test [5] deals with T1, HSP60. The experiment in a line: CETSA / ITDRFCETSA immunoblot. The class given is binding. Conditions: CETSA melt curve, NCI-H460 cells. Set-up: dose dependent recovery of soluble HSP60 in cells subjected to heating; endogenous in cells; host or cells: NCI-H460. Here is the method: Immunoblot experiments were carried out for validating of the three identified potential targets. […] In the isothermal dose-response fingerprint (ITDRFCETSA) experiment, treatment of cells with increasing concentrations of AGB led to dose dependent recovery of soluble HSP60 in cells subjected to heating at protein denaturation temperature at 60° C.
(In general: A western blot detects proteins with antibodies after separation by electrophoresis.)

pIC50, pKd: −log10 of the molar value. Where two headings read alike, the source gives them in different places.

T1 sequence (P10809 27-573): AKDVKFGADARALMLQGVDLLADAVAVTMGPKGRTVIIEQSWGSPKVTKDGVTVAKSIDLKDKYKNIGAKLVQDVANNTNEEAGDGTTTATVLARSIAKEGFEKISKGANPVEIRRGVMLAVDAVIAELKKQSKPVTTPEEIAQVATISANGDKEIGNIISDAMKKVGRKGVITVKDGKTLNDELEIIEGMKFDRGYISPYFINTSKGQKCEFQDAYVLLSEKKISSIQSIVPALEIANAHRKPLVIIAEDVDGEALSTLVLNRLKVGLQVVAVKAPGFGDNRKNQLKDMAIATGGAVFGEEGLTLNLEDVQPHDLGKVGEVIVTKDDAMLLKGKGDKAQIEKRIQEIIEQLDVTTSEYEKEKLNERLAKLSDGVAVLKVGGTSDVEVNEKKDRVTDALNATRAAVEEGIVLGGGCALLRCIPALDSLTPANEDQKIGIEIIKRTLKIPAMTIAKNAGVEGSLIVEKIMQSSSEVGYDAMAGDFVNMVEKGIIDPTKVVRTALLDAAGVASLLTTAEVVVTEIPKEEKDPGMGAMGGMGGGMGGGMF

One may read the pIC50 as −log10 of the IC50, conventionally taken in molar units. Usually pKd stands for the negative decadic logarithm of the Kd, by convention in mol/L. Turning to `CCCC(=O)c1c(O)c(Cc2c(O)c(Cc3c(O)c(C)c(OC)c(C(=O)CCC)c3O)c(O)c(C(=O)[C@@H](C)CC)c2O)c(O)c(C)c1OC` [AGB, Agrimol B], the pIC50 in test [1] (48-h treatment, range over tested cancer cell lines, read-out: IC50 values for the tested cancer cell lines) is 5.24 to 5.74; in test [1] (MTT assay, cancer cells, read-out: IC50 values against cancer cells), > 5.00. In addition, the “width of the scratch wound” value in test [2] (1 μM of AGB) was “significantly decreased”. In addition, the wound closure result in test [2] (4 μM or 10 μM of AGB, 16 h and 32 h) is given as “wound closure was inhibited”. The “concentration giving significant reduction of cell migration” value in test [2] (wound healing assay) is on record as “around 4 μM”. The values for the pKd in test [3] and in test [4] were 4.57 and 4.64, respectively. In addition, the “increase in the protein melting temperature (Tm) vs DMSO control” value in test [5] was found to be 3.2 °C.

The values are drawn from patent US20250162973A1, “METHODS OF SYNTHESIS AND USES OF AGRIMOL COMPOUNDS” (Versitech Limited, priority 2022, published 2025).
